# Results reported in patent publication US7052865B1, “Identification of genes having a role in the presentation of diabetic nephropathy” (University College Dublin, National University of Ireland, …, priority 1999, dated 2006).
# B1: rhCTGF: recombinant human connective tissue growth factor protein (protein, UniProt P29279 27-349, looked up)
# CCN family member 2: QNCSGPCRCPDEPAPRCPAGVSLVLDGCGCCRVCAKQLGELCTERDPCDPHKGLFCHFGSPANRKIGVCTAKDGAPCIFGGTVYRSGESFQSSCKYQCTCLDGAVGCMPLCSMDVRLPSPDCPFPRRVKLPGKCCEEWVCDEPKDQTVVGPALAAYRLEDTFGPDPTMIRANCLVQTTEWSACSKTCGMGISTRVTNDNASCRLEKQSRLCMVRPCEADLEENIKKGKKCIRTPKISKPIKFELSGCTSMKTYRAKFCGVCTDGRCCTPHRTTTLPVEFKCPDGEVMKKNMMFIKTCACHYNCPGDNDIFESLYYRKMYGDMA
# Legend:
# CTGF = CTGF mRNA levels in mesangial cells by Northern Blot, Phosphor Imager quantification; type: cell-based, human
# Excerpt: CTGF, is a 38 kD cysteine-rich secreted peptide known to modulate ECM production in some extrarenal cell types. In Example 1, SSH analysis identified a cDNA fragment of 250 bp which was identical to bases 814-1061 of the human CTGF cDNA. Induction of CTGF mRNA expression in primary human mesangial cells cultured in high glucose was investigated by Northern Blotting as shown in FIG. 1.
# A 2.4 kb band was detected following hybridisation with the CTGF probe. All of the values were normalised to GAPDH levels and the results are representative of three independent experiments.
# To assess the role of TGF-β1 as a stimulus for CTGF expression in response to high glucose, cells were incubated in either 5 mM glucose or 30 mM glucose plus 1 μl/ml anti-TGF-β1 antibody for seven days with three changes of medium. Cells were serum starved for 24 hr in RPMI 1640 and 0.5% FBS. 10 ng/ml TGF-β1 Calbiochem) or 10 ng/ml TGF-β1 preadsorbed with 1 μg/ml neutralising anti-TGF-β1 polyclonal antibody were subsequently added for 24 hr.
# The role of PKC on CTGF expression in response to high glucose was investigated by culturing the mesangial cells in either 5 mM, 30 mM glucose or 30 mM glucose and the PKC inhibitor GF 102903X.
# FIG. 7 is an autoradiograph of CTGF mRNA levels analysed by Northern Blot and depicts the results obtained when mesangial cells were exposed to TGF-β1 (10 ng/ml) for 24 hr in the presence (lane 3) and absence (lane 2) of anti-TGF-β1 neutralising antibody (1 μg/ml). Cells cultured in RPMI 1640 and 0.5% FBS for 24 hr served as control (lane 1). A 2.4 kb band was detected following hybridisation to the CTGF probe. The blot was stripped and reprobed with GAPDH. The relative amount of CTGF mRNA as estimated by Phosphor Imager quantification (FIG. 8). Values were normalised to GAPDH levels and the results are representative of two independent experiments.
# (§1) FIG. 9 is an autoradiograph of CTGF mRNA levels analysed by Northern Blot and depicts the results obtained when mesangial cells were exposed to 5 mM glucose (lane 1), 30 mM glucose (lane 2) and 30 mM glucose in the presence of anti-TGF-β1 neutralising antibodies (1 μg/ml) (lane 3) for seven days. A 2.4 kb band was detected following hybridisation to the CTGF probe. The blot was stripped and probed with GAPDH. The relative amount of CTGF MRNA as estimated by Phosphor Imager quantification (FIG. 10). […]
# as §1, with “11” for “9”, “PKC inhibitor GF102903X (10 μM)” for “the presence of anti-TGF-β1 neutralising antibodies (1 μg/ml)”, “four” for “seven”, “The blot was stripped and probed with GAPDH.” left out, “rnRNA” for “MRNA”, “12).” for “10).”
# [1] = tested on: primary human mesangial cells; assay: Northern Blot of genes differentially induced in mesangial cells cultured in high glucose or mannitol (Table 1); type: cell-based; parameters: key to Differential Expression of IHG-1 mRNA: *: detected in mesangial cells cultured in 5 mM glucose+25 mM mannitol and 30 mM glucose, but not in 5 mM glucose; settings: 25 mM mannitol + 5 mM glucose, relative to 5 mM glucose
# Procedure: Primary human mesangial cells were cultured as previously reported (Brady, H. R., et al. (1992) Kidney Int. 42, 480-487 and Denton, M. D., et al. (1991) Am. J. Physiol. 261, F1071-F1079). Cells (passage 7-11) were maintained in medium (Clonetics) containing either 5 mM or 30 mM D-glucose for 7 days. Culture medium was replenished three times during this period to maintain glucose levels in the desired range. To control for the effects of hyperosmolarity, mesangial cells were cultured in media containing 5 mM glucose supplemented with 25 mM mannitol. […] Northern Blots performed using formaldehyde denaturation according to standard protocols and quantitated using a Phosphor Imager (Biorad) confirmed differential expression of fifteen of the sixteen subcloned fragments as indicated in Table 1. ^c refers to the differential expression of each gene based on Northern Blot analysis of primary human mesangial cells cultured under indicated conditions relative to expression in cells cultured in 5 mM glucose. Values were obtained by Phosphor-Imaging and were normalised by comparison with glyceraldehyde-3-phosphate dehydrogenase (GAPDH) (*, detected in mesangial cells cultured in 5 mM glucose+25 mM mannitol and 30 mM glucose, but not in 5 mM glucose, fold expression is degree of expression relative to that found in 5 mM glucose). Within a diabetic milieu, high glucose levels may perturb cellular function through glucose-specific actions or by increasing the osmolarity of extracellular fluids. The role of hyperosmolarity as a mediator of gene induction by high glucose was assessed by comparing mRNA levels, as determined by Northern Blot, in cells cultured in either 30 mM glucose or in 5 mM glucose supplemented with 25 mM mannitol. […] High glucose and mannitol-induced hyperosmolarity afforded equivalent induction of the other products.
# gremlin = assay: Gremlin mRNA levels in mesangial cells by Northern Blot; type: cell-based; settings: human recombinant TGF-β1 10 ng/ml, 24 h, serum restricted mesangial cells
# Procedure: A) Primary cultures of human mesangial cells were propagated as described in Example 1, except that the medium was supplemented with 5% FBS. Treatment of cultures with glucose was carried out as described in Example 1. […]
# Northern Blot analysis as described further below was performed on RNA extracted from mesangial cells grown in either 5 mM (‘normal’) or 30 mM (‘high’) glucose using the ORF of gremlin and IHG-2 probes. Both probes detected a 2-fold increase in gene expression under high glucose conditions as depicted in FIG. 16.
# Northern Blots were performed using formaldehyde denaturation according to standard protocols and quantitated using a phosphorimager (Biorad). PCR products used to generate the probes for northern analysis were amplified using primers for the open reading frame (ORF) of gremlin (sense: […] (SEQ ID NO: 17); antisense […] (SEQ ID NO: 18)), and for IHG-2 (sense: […] (SEQ ID NO 19); antisense: […] (SEQ ID NO: 20)). Fibronectin and GAPDH probes were generated as described in Example 2
# As indicated above, both high ambient glucose concentrations and cyclic mechanical strain provoke TGF-β1 production by mesangial cells in vitro and TGF-β1 appears to be a major stimulus for mesangial matrix accumulation in diabetic glomeruli in vivo. […]
# mesangial cells = assay: Effect of rhCTGF on mesangial cell matrix production (RT-PCR); type: cell-based, human; settings: rhCTGF 8 ng/ml, 24 hr, serum starved mesangial cells
# Procedure: To investigate the direct effects of CTGF up-regulation on matrix production, in particular the effect on collagens I and IV and fibronectin, mesangial cells were incubated with recombinant CTGF protein.
# Mesangial cells were serum starved for 24 hr in RPMI 1640 medium supplemented with 0.5 % fetal bovine serum (FBS) and then exposed to rhCTGF (8 ng/ml) (a generous gift from Dr. Gary Grotendorst) for 24 hr (Kreisberg, J. I. and Ayo, S. H. (1993). Kidney Int. 43, 109-113). Total RNA was extracted and chromosomal DNA was removed using DNase 1 (Gibco-BRL). Equal amounts of cDNA were subsequently amplified by PCR using specific primers for GAPDH (Gen/EMBL accession no. AJ005371, sense: […] (SEQ ID NO: 7); antisense: […] (SEQ ID NO: 8), Collagen I (Gen/EMBL accession no. X55525, sense: […] (SEQ ID NO: 9); antisense: […] (SEQ ID NO: 10)), Collagen IV (Gen/EMBL accession no. M11315, sense: […] (SEQ ID NO: 11); antisense: […] (SEQ ID NO: 12) and fibronectin (Gen/EMBL accession no. X0276 1, sense: CGAAATCACAGCCAGTAG (SEQ ID NO. 13), antisense: ATCACATCCACACGGTAG (SEQ ID NO: 14)).
# FIG. 3 depicts ethidium-stained panels of a 2% (w/v) agarose gel containing 10 μl of each PCR reaction after electrophoresis.
molecule,measurement,setting,value
CN(C)CCCn1cc(C2=C(c3c[nH]c4ccccc34)C(=O)NC2=O)c2ccccc21 [GF102903X],effect on high glucose-induced CTGF expression,"CTGF; 30 mM glucose, four days, inhibitor 10 μM",partial inhibition
same,effect on TGF-β1-induced CTGF expression,"CTGF; TGF-β1 10 ng/ml, 24 hr, antibody 1 μg/ml, GF102903X data not shown",without effect
OC[C@@H](O)[C@@H](O)[C@H](O)[C@H](O)CO [mannitol],Differential Expression of IHG-1 mRNA,[1],*
same,Differential Expression of ARP3 mRNA,[1]; normalised to GAPDH,1.0-fold
same,Differential Expression of CAP mRNA,[1]; normalised to GAPDH,1.7-fold
same,Differential Expression of CTGF mRNA,[1]; normalised to GAPDH,1.5-fold
same,Differential Expression of Caldesmon mRNA,[1]; normalised to GAPDH,2.8-fold
same,Differential Expression of Fibronectin mRNA,[1]; normalised to GAPDH,1.5-fold
same,Differential Expression of IHG-2 mRNA,[1]; normalised to GAPDH,2.0-fold
same,Differential Expression of MRLC mRNA,[1]; normalised to GAPDH,1.6-fold
same,Differential Expression of PAI-1 mRNA (2.0 kb),[1]; normalised to GAPDH,1.0-fold
same,Differential Expression of PAI-1 mRNA (3.0 kb),[1]; normalised to GAPDH,2.0-fold
same,Differential Expression of Profilin mRNA,[1]; normalised to GAPDH,2.3-fold
same,Differential Expression of RBM3 mRNA,[1]; normalised to GAPDH,1.4-fold
same,Differential Expression of T-plastin mRNA,[1]; normalised to GAPDH,1.8-fold
same,Differential Expression of TCTP mRNA,[1]; normalised to GAPDH,2.5-fold
same,Differential Expression of Thrombospondin mRNA,[1]; normalised to GAPDH,8.0-fold
same,Differential Expression of Ubiquitin mRNA,[1]; normalised to GAPDH,1.7-fold
same,mesangial cell CTGF expression compared with high glucose,"CTGF; 25 mM mannitol + 5 mM glucose versus 30 mM glucose, in vitro",less mesangial cell CTGF expression in vitro than high glucose
TGF-β1: human recombinant transforming growth factor β1 (Calbiochem),gremlin mRNA levels,gremlin,augmented
same,induction of CTGF mRNA levels,"CTGF; TGF-β1 10 ng/ml, 24 hr, serum starved mesangial cells",potent inducer
B1,mesangial cell collagens I and IV and fibronectin mRNA (RT-PCR),mesangial cells,up-regulates
